Reference: US20240415918A1, “Polypeptide and its use as a CCK receptor agonist/antagonist” (Centre for Regenerative Medicine & Health, Hong Kong …, priority 2021, published 2024)
Where a SMILES comes first, the peptide text is derived from it. [ ]: non-standard residue; d: D form. The star is where a group is joined. NMeW = CN[C@@H](Cc1c[nH]c2ccccc12)C(=O)O; Phe(3-Br) = N[C@@H](Cc1cccc(Br)c1)C(=O)O; dNMeW = CN[C@H](Cc1c[nH]c2ccccc12)C(=O)O; Fmoc = O=C(OCC1c2ccccc2-c2ccccc21)*; Aad = N[C@@H](CCCC(=O)O)C(=O)O; Nle = CCCC[C@H](N)C(=O)O

Target: T1, CCK-B receptors (CHO-CCK) (Homo sapiens, UniProt P32239)
T1 construct: expressed in transfected cells; host or cells: CHO (CHO-CCK model cells)
T1 sequence (P32239 1-447): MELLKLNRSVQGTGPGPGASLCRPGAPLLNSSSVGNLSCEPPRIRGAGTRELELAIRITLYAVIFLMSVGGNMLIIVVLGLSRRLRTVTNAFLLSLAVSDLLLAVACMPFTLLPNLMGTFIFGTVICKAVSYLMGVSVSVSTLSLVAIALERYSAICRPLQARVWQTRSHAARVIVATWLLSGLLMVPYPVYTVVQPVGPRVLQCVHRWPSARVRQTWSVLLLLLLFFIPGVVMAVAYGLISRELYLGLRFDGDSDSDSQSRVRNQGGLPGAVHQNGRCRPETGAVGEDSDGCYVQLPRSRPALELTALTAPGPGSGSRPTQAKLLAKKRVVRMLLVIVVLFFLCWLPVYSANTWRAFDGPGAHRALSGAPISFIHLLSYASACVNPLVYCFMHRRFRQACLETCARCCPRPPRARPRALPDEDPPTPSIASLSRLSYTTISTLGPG
Test: Calcium flux (Fluo-8) agonist test on CHO-CCK model cells
Type: cell-based
Conditions: for Agonistic Activity (%) at 10 μM: compound at 10 μM, percentage of signal of 20 nM CCK8 alone; for EC50 / % Act-Ave @ 1 nM / % Act-Ave @ 50 nM: CHO-CCK cells; for EC50: Fluo-8 calcium flux, 100% control = 20 nM CCK8; for % Act-Ave @ 1 nM: compound at 1 nM; for % Act-Ave @ 50 nM: compound at 50 nM
Protocol: • To detect changes in intracellular calcium ion concentration after the compound acts on model cells containing CCK-B receptors (CHO-CCK).
• 1. The compound was formulated to a 10 mM mother liquor with DMSO, and then diluted into a series of 9 concentrations with a 3-fold gradient to form a 1000× stock solution.
2.1 Agonist • The compound stock solution was subjected to 200-fold dilution with HHBS buffer to form a 5× working solution.
• 1. Plate CHO-CCK cells in a 96-well plate with media containing 1% FBS, 30,000 cells/well/100 μL, and incubate overnight at 37° C. • 2. Prepare 1×Fluo-8 analysis buffer: mix 9 mL of HHBS, 1 mL of 10× Pluronic F127 Plus and 20 μL of Fluo-8 thoroughly for later use. • 3. Add Fluo-8 dye working solution to the cell plate, 100 μL/well. First incubate in a 37° C. incubator for 30 min, and then take it out and incubate at room temperature in the dark for 30 min. • 4. In the process of incubating cells, the compounds to be detected were prepared with HHBS. • 5.
The agonism/antagonism EC50 of the compound can be obtained by plotting the fitting curve with the agonism/antagonism percentage as Y-axis and the concentration of the compound as X-axis.

Row | Agonistic Activity (%) at 10 μM | SMILES | also measured
1 | −4.16% | COC(=O)C[C@H](NC(=O)[C@H](CC[S+](C)[O-])NC(=O)[C@H](N)Cc1c[nH]c2ccccc12)C(=O)N[C@@H](Cc1cc(F)c(F)c(F)c1)C(N)=O (stereo partly drawn) [HT-125, D-Trp-Met(O)-Asp(Ome)-Phe(3,4,5-TriF)-NH2] | 
2 | 9.50% | COC(=O)C[C@H](NC(=O)[C@H](CCS(C)(=O)=O)NC(=O)[C@H](N)Cc1c[nH]c2ccccc12)C(=O)N[C@@H](Cc1ccccc1[N+](=O)[O-])C(N)=O [HT-126, D-Trp-Met(O)-Asp(Ome)-Phe(2-NO2)-NH2] | 
3 | 1.79% | COC(=O)C[C@H](NC(=O)[C@H](CCS(C)(=O)=O)NC(=O)[C@H](N)Cc1c[nH]c2ccccc12)C(=O)N[C@@H](Cc1ccccc1F)C(N)=O [HT-127, D-Trp-Met(O2)-Asp(Ome)-Phe(2-F)-NH2] | 
4 | 0.73% | COC(=O)C[C@H](NC(=O)[C@H](CCS(C)(=O)=O)NC(=O)[C@H](N)Cc1c[nH]c2ccccc12)C(=O)N[C@@H](Cc1cccc(Cl)c1)C(N)=O [HT-128, D-Trp-Met(O2)-Asp(Ome)-Phe(3-Cl)-NH2] | 
5 | −4.28% | COC(=O)C[C@H](NC(=O)[C@H](CCS(C)(=O)=O)NC(=O)[C@H](N)Cc1c[nH]c2ccccc12)C(=O)N[C@@H](Cc1cccc(F)c1)C(N)=O [HT-129, D-Trp-Met(O2)-Asp(Ome)-Phe(3-F)-NH2] | 
6 | 0.86% | COC(=O)C[C@H](NC(=O)[C@H](CCS(C)(=O)=O)NC(=O)[C@H](N)Cc1c[nH]c2ccccc12)C(=O)N[C@@H](Cc1cccc(C)c1)C(N)=O [HT-130, D-Trp-Met(O2)-Asp(Ome)-Phe(3-I)-NH2] | 
7 | 5.87% | COC(=O)C[C@H](NC(=O)[C@H](CCS(C)(=O)=O)NC(=O)[C@H](N)Cc1c[nH]c2ccccc12)C(=O)N[C@@H](Cc1cccc(Br)c1)C(N)=O [HT-131, D-Trp-Met(O2)-Asp(Ome)-Phe(3-Br)-NH2] | 
8 | −14.42% | COC(=O)C[C@H](NC(=O)[C@H](CCS(C)(=O)=O)NC(=O)[C@H](N)Cc1c[nH]c2ccccc12)C(=O)N[C@@H](Cc1ccc(C)cc1)C(N)=O [HT-132, D-Trp-Met(O2)-Asp(Ome)-Phe(4-Me)-NH2] | 
9 | 8.66% | COC(=O)C[C@H](NC(=O)[C@H](CCS(C)(=O)=O)NC(=O)[C@H](N)Cc1c[nH]c2ccccc12)C(=O)N[C@@H](Cc1ccc(N=[N+]=[N-])cc1)C(N)=O [HT-133, D-Trp-Met(O2)-Asp(Ome)-Phe(4-N3)-NH2] | 
10 | 11.25% | COC(=O)C[C@H](NC(=O)[C@H](CCS(C)(=O)=O)NC(=O)[C@H](N)Cc1c[nH]c2ccccc12)C(=O)N[C@@H](Cc1ccc(C#N)cc1)C(N)=O [HT-134, D-Trp-Met(O2)-Asp(Ome)-Phe(4-CN)-NH2] | 
11 | 11.52% | COC(=O)C[C@H](NC(=O)[C@H](CCS(C)(=O)=O)NC(=O)[C@H](N)Cc1c[nH]c2ccccc12)C(=O)N[C@@H](Cc1ccc([N+](=O)[O-])cc1)C(N)=O [HT-135, D-Trp-Met(O2)-Asp(Ome)-Phe(4-NO2)-NH2] | 
12 | 2.69% | COC(=O)C[C@H](NC(=O)[C@H](CCS(C)(=O)=O)NC(=O)[C@H](N)Cc1c[nH]c2ccccc12)C(=O)N[C@@H](Cc1ccc(Br)cc1)C(N)=O [HT-136, D-Trp-Met(O2)-Asp(Ome)-Phe(4-Br)-NH2] | 
13 | 2.10% | COC(=O)C[C@H](NC(=O)[C@H](CCS(C)(=O)=O)NC(=O)[C@H](N)Cc1c[nH]c2ccccc12)C(=O)N[C@@H](Cc1ccc(Cl)cc1)C(N)=O [HT-137, D-Trp-Met(O2)-Asp(Ome)-Phe(4-Cl)-NH2] | 
14 | −3.84% | [2H]c1ccc(C[C@H](NC(=O)[C@H](CC(=O)OC)NC(=O)[C@H](CCS(C)(=O)=O)NC(=O)[C@H](N)Cc2c[nH]c3ccccc23)C(N)=O)cc1 [HT-138, D-Trp-Met(O2)-Asp(Ome)-Phe(4-F)-NH2] | 
15 | 13.02% | COC(=O)C[C@H](NC(=O)[C@H](CCS(C)(=O)=O)NC(=O)[C@H](N)Cc1c[nH]c2ccccc12)C(=O)N[C@@H](Cc1ccc(I)cc1)C(N)=O [HT-139, D-Trp-Met(O2)-Asp(Ome)-Phe(4-I)-NH2] | 
16 | 10.66% | COC(=O)C[C@H](NC(=O)[C@H](CCS(C)(=O)=O)NC(=O)[C@H](N)Cc1c[nH]c2ccccc12)C(=O)N[C@@H](Cc1cc(Cl)cc(Cl)c1)C(N)=O [HT-140, D-Trp-Met(O2)-Asp(Ome)-Phe(3,5-DiCl)-NH2] | 
17 | 5.60% | COC(=O)C[C@H](NC(=O)[C@H](CCS(C)(=O)=O)NC(=O)[C@H](N)Cc1c[nH]c2ccccc12)C(=O)N[C@@H](Cc1cc(F)cc(F)c1)C(N)=O [HT-141, D-Trp-Met(O2)-Asp(Ome)-Phe(3,5-DiF)-NH2] | 
18 | 0.79% | COC(=O)C[C@H](NC(=O)[C@H](CCS(C)(=O)=O)NC(=O)[C@H](N)Cc1c[nH]c2ccccc12)C(=O)N[C@@H](Cc1cc(F)c(F)c(F)c1)C(N)=O [HT-142, D-Trp-Met(O2)-Asp(Ome)-Phe(3,4,5-TriF)-NH2] | 
19 |  | CCCC[C@H](NC(=O)[C@H](Cc1c[nH]c2ccccc12)N(C)C(=O)OCC1c2ccccc2-c2ccccc21)C(=O)N[C@@H](CC(=O)O)C(=O)N[C@@H](Cc1cccc(Br)c1)C(N)=O [HT-199, Fmoc-(N-Me-Trp)-Nle-Asp-Phe(3-Br)-NH2] (Fmoc-[NMeW][Nle]D[Phe(3-Br)]-NH2) | EC50: 1.47 nM
20 |  | CCCC[C@H](NC(=O)[C@H](Cc1c[nH]c2ccccc12)N(C)C(=O)OCC1c2ccccc2-c2ccccc21)C(=O)N[C@@H](CC(=O)O)C(=O)N[C@@H](Cc1cccc(Br)c1)C(N)=O [HT-268, Fmoc-(N-Me-Trp)-Nle-Asp-Phe(3-Br)-NH2] (Fmoc-[NMeW][Nle]D[Phe(3-Br)]-NH2) | EC50: 1.3 nM
21 |  | CCCC[C@H](NC(=O)[C@H](Cc1c[nH]c2ccccc12)N(C)C(C)=O)C(=O)N[C@@H](CC(=O)O)C(=O)N[C@@H](Cc1cccc(Br)c1)C(N)=O [HT-269, Ac-(N-Me-Trp)-Nle-Asp-Phe(3-Br)-NH2] (Ac-[NMeW][Nle]D[Phe(3-Br)]-NH2) | % Act-Ave @ 1 nM: 0.05%; % Act-Ave @ 50 nM: 33.52%
22 |  | CCCC[C@H](NC(=O)[C@@H](Cc1c[nH]c2ccccc12)N(C)C(C)=O)C(=O)N[C@@H](CCCC(=O)O)C(=O)N[C@@H](Cc1cccc(Br)c1)C(N)=O [HT-270, Ac-D-Trp-Nle-Aa-Phe(3-Br)-NH2] (Ac-[dNMeW][Nle][Aad][Phe(3-Br)]-NH2) | % Act-Ave @ 1 nM: −0.03%; % Act-Ave @ 50 nM: 80.85%

Row | SMILES | Agonistic Activity (%) at 10 μM | also measured
23 | C[S+]([O-])CC[C@H](NC(=O)[C@H](N)Cc1c[nH]c2ccccc12)C(=O)N[C@@H](CC(=O)OCCNc1cccc2c(O)cccc12)C(=O)N[C@@H](Cc1ccccc1[N+](=O)[O-])C(N)=O (stereo partly drawn) [HT-143, D-Trp-Met(O)-Asp(EDANS)-Phe(2-NO2)-NH2] | 4.33% | 
24 | C[S+]([O-])CC[C@H](NC(=O)[C@H](N)Cc1c[nH]c2ccccc12)C(=O)N[C@@H](CC(=O)OCCNc1cccc2c(O)cccc12)C(=O)N[C@@H](Cc1cccc(Cl)c1)C(N)=O (stereo partly drawn) [HT-145, D-Trp-Met(O)t-Asp(EDANS)-Phe(3-Cl)-NH2] | −5.52% | 
25 | C[S+]([O-])CC[C@H](NC(=O)[C@H](N)Cc1c[nH]c2ccccc12)C(=O)N[C@@H](CC(=O)OCCNc1cccc2c(O)cccc12)C(=O)N[C@@H](Cc1ccc(N=[N+]=[N-])cc1)C(N)=O (stereo partly drawn) [HT-150, D-Trp-Met(O)-Asp(EDANS)-Phe(4-N3)-NH2] | 0.81% | 
26 | C[S+]([O-])CC[C@H](NC(=O)[C@H](N)Cc1c[nH]c2ccccc12)C(=O)N[C@@H](CC(=O)OCCNc1cccc2c(O)cccc12)C(=O)N[C@@H](Cc1ccc(F)cc1)C(N)=O (stereo partly drawn) [HT-155, D-Trp-Met(O)-Asp(EDANS)-Phe(4-F)-NH2] | 0.50% | 
27 | C[S+]([O-])CC[C@H](NC(=O)[C@H](N)Cc1c[nH]c2ccccc12)C(=O)N[C@@H](CC(=O)OCCNc1cccc2c(O)cccc12)C(=O)N[C@@H](Cc1cc(F)c(F)c(F)c1)C(N)=O (stereo partly drawn) [HT-159, D-Trp-Met(O)-Asp(EDANS)-Phe(3,4,5-TriF)-NH2] | 4.93% | 
28 | CS(=O)(=O)CC[C@H](NC(=O)[C@H](N)Cc1c[nH]c2ccccc12)C(=O)N[C@@H](CC(=O)OCCNc1cccc2c(O)cccc12)C(=O)N[C@@H](Cc1cccc(F)c1)C(N)=O [HT-163, D-Trp-Met(O2)-Asp(EDANS)-Phe(3-F)-NH2] | 2.64% | 
29 | Cc1ccc(C[C@H](NC(=O)[C@H](CC(=O)OCCNc2cccc3c(O)cccc23)NC(=O)[C@H](CCS(C)(=O)=O)NC(=O)[C@H](N)Cc2c[nH]c3ccccc23)C(N)=O)cc1 [HT-166, D-Trp-Met(O2)-Asp(EDANS)-Phe(4-Me)-NH2] | 3.59% | 
